Assay results reported in patent publication US8513221B2, “PI3K isoform selective inhibitors” (Xcovery Holding, LLC, priority 2008, dated 2013).
Where two headings read alike, the source gives them in different places.

Legend:
[1] = target: T1, PI3Kδ (Homo sapiens, UniProt O00329); assay: Ambit Biosciences kinase competition binding assay, PI3Kδ
T1 construct: purchased Ambit Biosciences (San Diego, Calif., USA); host or cells: T7 phage in BL21-derived E. coli, or HEK-293
T1 sequence (O00329 1-1044): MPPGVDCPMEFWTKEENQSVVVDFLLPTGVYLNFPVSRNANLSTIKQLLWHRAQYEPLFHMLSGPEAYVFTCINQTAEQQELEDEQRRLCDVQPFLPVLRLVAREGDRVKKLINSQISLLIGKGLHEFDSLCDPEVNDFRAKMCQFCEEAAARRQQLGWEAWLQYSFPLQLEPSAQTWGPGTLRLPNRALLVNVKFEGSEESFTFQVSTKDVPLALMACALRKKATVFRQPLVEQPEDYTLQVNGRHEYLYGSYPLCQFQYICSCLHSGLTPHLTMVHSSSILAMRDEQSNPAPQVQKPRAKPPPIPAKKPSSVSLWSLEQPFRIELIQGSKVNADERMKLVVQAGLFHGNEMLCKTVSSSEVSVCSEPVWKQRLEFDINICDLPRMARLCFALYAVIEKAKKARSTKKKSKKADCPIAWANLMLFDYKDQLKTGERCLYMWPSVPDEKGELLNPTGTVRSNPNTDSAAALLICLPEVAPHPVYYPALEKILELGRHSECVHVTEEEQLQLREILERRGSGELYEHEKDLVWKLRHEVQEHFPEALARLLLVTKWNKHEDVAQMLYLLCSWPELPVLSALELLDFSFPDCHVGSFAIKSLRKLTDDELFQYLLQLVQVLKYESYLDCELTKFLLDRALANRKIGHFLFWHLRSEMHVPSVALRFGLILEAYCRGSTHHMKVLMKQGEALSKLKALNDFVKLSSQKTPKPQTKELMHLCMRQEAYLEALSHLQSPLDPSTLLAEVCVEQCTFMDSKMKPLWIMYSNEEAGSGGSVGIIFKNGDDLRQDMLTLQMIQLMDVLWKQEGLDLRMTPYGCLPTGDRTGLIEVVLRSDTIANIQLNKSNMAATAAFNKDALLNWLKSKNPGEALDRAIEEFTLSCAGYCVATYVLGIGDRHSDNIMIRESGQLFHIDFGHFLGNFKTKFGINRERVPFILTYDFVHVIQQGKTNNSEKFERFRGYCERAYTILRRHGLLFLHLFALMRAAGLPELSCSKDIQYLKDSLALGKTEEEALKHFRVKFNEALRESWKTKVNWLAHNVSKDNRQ
Protocol: Kinase assays. For most assays, kinase-tagged T7 phage strains were grown in parallel in 24-well blocks in an E. coli host derived from the BL21 strain. E. coli were grown to log-phase and infected with T7 phage from a frozen stock (multiplicity of infection ˜0.1) and incubated with shaking at 32° C. until lysis (˜90 minutes). The lysates were centrifuged (6,000×g) and filtered ([…]) to remove cell debris. The remaining kinases were produced in HEK-293 cells and subsequently tagged with DNA for qPCR detection. […] The liganded beads were blocked with excess biotin and washed with blocking buffer (SeaBlock (Pierce), 1% BSA, 0.05% Tween 20, 1 mM DTT) to remove unbound ligand and to reduce non-specific phage binding. […] Test compounds were prepared as 40× stocks in 100% DMSO and directly diluted into the assay. All reactions were performed in polypropylene 384-well plates in a final volume of 0.04 ml. […] The kinase concentration in the eluates was measured by qPCR.
Compounds were tested using the above assay at Ambit Biosciences (San Diego, Calif., USA).

[2] = target: T2, PI3Kγ (Homo sapiens, UniProt P48736); assay: Ambit Biosciences kinase competition binding assay, PI3Kγ; details: read-out: inhibitory activity against other isoforms: PI3Kγ
T2 construct: purchased Ambit Biosciences (San Diego, Calif., USA); host or cells: T7 phage in BL21-derived E. coli, or HEK-293
T2 sequence (P48736 whole entry, canonical isoform): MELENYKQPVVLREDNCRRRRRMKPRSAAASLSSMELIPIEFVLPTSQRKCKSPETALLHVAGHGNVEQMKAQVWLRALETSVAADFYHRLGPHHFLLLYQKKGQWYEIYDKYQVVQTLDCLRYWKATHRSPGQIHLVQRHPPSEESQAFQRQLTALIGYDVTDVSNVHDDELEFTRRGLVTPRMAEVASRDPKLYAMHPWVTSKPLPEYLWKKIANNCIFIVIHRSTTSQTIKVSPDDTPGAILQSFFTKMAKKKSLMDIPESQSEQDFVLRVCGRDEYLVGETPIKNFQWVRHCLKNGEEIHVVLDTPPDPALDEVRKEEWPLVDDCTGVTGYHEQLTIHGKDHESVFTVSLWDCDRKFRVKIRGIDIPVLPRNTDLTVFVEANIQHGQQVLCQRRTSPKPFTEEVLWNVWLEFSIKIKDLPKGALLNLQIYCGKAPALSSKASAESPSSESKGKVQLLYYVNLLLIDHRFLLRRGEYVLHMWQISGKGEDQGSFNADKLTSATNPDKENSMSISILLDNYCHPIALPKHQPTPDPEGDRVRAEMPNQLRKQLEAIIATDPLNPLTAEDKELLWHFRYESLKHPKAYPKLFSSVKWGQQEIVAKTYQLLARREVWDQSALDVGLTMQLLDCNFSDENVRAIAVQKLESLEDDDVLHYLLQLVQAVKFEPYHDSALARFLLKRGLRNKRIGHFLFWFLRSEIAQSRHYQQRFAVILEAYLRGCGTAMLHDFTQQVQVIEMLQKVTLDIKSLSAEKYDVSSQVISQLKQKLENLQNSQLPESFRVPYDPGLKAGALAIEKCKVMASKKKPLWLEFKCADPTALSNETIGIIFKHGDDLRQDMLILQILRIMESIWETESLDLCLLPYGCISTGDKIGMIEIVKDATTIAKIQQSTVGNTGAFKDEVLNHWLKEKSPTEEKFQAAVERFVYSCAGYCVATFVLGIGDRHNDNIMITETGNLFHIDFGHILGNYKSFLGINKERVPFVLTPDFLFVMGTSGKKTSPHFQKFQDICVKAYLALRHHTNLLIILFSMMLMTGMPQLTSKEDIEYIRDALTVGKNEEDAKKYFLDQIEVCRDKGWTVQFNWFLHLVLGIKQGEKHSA
Protocol: (§1) Assays were performed as described in Fabian et al. (2005) Nature Biotechnology, vol. 23, p. 329 and in Karaman et al. (2008) Nature Biotechnology, vol. 26, p. 127.
(§2) Kinase assays. For most assays, kinase-tagged T7 phage strains were grown in parallel in 24-well blocks in an E. coli host derived from the BL21 strain. E. coli were grown to log-phase and infected with T7 phage from a frozen stock (multiplicity of infection ˜0.1) and incubated with shaking at 32° C. until lysis (˜90 minutes). The lysates were centrifuged (6,000×g) and filtered ([…]) to remove cell debris. The remaining kinases were produced in HEK-293 cells and subsequently tagged with DNA for qPCR detection. Streptavidin-coated magnetic beads were treated with biotinylated small molecule ligands for 30 minutes at room temperature to generate affinity resins for kinase assays. The liganded beads were blocked with excess biotin and washed with blocking buffer (SeaBlock (Pierce), 1% BSA, 0.05% Tween 20, 1 mM DTT) to remove unbound ligand and to reduce non-specific phage binding. Binding reactions were assembled by combining kinases, liganded affinity beads, and test compounds in 1× binding buffer (20% SeaBlock, 0.17× PBS, 0.05% Tween 20, 6 mM DTT). Test compounds were prepared as 40× stocks in 100% DMSO and directly diluted into the assay. […] The kinase concentration in the eluates was measured by qPCR. […]

[3] = target: T3, PI3Kα (Homo sapiens, UniProt P42336); assay: Ambit Biosciences kinase competition binding assay, PI3Kα; details: read-out: inhibitory activity against other isoforms: PI3Kα
T3 construct: purchased Ambit Biosciences (San Diego, Calif., USA); host or cells: T7 phage in BL21-derived E. coli, or HEK-293
T3 sequence (P42336 whole entry, canonical isoform): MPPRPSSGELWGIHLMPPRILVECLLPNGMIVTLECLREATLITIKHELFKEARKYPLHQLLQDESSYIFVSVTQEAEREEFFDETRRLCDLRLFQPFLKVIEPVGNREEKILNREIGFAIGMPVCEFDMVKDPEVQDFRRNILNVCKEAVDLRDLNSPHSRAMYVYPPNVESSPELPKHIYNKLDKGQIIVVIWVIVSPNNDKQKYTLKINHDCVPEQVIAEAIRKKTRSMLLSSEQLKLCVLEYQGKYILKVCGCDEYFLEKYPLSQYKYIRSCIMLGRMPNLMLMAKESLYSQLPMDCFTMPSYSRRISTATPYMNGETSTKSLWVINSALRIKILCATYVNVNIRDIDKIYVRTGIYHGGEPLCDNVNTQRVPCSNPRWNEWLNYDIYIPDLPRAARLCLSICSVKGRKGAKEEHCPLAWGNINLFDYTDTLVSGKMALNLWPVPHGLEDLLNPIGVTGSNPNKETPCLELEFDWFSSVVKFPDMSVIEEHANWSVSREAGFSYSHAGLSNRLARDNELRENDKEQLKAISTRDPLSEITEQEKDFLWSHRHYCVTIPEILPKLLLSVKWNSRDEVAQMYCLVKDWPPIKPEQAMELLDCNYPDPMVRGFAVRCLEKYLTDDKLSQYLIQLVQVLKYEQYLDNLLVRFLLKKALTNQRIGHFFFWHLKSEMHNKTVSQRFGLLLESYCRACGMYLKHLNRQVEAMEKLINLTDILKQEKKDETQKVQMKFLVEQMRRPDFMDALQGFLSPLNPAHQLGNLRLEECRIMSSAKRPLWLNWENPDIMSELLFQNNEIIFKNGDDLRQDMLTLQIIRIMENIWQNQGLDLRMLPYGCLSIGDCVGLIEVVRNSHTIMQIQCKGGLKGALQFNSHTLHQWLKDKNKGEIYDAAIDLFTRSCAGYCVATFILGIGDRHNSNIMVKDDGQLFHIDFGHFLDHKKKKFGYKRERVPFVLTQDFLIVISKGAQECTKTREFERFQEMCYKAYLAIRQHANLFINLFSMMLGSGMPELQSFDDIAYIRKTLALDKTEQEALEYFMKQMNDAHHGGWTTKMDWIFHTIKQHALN
Protocol: as §1, §2

[4] = target: T4, PI3Kβ (Homo sapiens, UniProt P42338); assay: Ambit Biosciences kinase competition binding assay, PI3Kβ; details: read-out: inhibitory activity against other isoforms: PI3Kβ
T4 construct: purchased Ambit Biosciences (San Diego, Calif., USA); host or cells: T7 phage in BL21-derived E. coli, or HEK-293
T4 sequence (P42338 whole entry, canonical isoform): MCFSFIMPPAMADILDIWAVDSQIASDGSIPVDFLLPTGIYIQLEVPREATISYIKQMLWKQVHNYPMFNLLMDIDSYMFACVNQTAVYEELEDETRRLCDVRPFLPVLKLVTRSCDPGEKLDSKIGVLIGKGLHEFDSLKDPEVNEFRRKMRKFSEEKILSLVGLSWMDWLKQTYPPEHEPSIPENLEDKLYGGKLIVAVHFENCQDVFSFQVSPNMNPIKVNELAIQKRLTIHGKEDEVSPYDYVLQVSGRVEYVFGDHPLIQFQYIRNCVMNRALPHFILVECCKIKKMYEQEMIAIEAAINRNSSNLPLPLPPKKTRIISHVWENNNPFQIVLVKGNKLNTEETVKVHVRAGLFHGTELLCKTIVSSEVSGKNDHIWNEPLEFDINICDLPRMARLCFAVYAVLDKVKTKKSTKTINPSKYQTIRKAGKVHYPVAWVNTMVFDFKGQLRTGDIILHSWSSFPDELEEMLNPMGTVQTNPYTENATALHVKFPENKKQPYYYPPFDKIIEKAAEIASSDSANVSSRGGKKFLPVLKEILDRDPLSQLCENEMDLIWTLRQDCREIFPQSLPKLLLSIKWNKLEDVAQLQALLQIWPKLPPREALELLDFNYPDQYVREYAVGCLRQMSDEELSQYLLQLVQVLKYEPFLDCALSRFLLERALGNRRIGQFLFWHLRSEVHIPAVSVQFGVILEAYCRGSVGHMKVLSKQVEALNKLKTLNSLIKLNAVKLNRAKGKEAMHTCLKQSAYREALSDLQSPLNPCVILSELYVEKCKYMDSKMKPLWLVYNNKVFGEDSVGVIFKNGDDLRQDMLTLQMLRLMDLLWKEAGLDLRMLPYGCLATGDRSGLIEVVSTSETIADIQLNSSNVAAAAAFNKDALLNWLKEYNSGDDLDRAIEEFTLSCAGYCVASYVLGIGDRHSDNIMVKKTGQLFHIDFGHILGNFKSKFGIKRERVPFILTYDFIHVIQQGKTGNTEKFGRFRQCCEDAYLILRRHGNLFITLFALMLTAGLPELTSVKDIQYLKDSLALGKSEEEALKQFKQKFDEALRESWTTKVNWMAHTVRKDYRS
Protocol: as §1, §2

[5] = target: T5, mTor (Homo sapiens, UniProt P42345); assay: Z′-LYTE biochemical assay for mTor; details: at up to 1 μM
T5 construct: purchased Invitrogen Corp. (Madison, Wis., USA)
Protocol: The Z′-LYTE® biochemical assay for mTor The mTor kinase activity was assessed using the Z′-LYTE® biochemical assay of Invitrogen Corp. (Madison, Wis., USA).

IC50 ([1]; read-out: inhibition against PI3Kδ (IC50)) [nM] | Structure (SMILES) | IC50 [2] [nM] | IC50 [3] [nM] | IC50 [4] [nM] | IC50 [1] [nM] | mTor kinase inhibition [5]
< 30 | CS(=O)(=O)N1CCN(CCn2cnc3c(-n4c(C(F)F)nc5ccccc54)nc(N4CCOCC4)nc32)CC1 [Example 14, 6-(2-difluoromethyl-benzoimidazol-1-yl)-9-[2-(4-methanesulfonyl-piperazin-1-yl)-ethyl]-2-morpholin-4-yl-9H-purine] | > 100 | > 100 | > 100 |  | 
 | OCCn1cnc2c(-n3c(C(F)F)nc4ccccc43)nc(N3CCOCC3)nc21 [Example 28, 2-{6-[2-(difluoromethyl)benzimidazol-1-yl]-2-morpholin-4-ylpurin-9-yl}ethan-1-ol] | > 100 | > 100 | > 100 | < 30 | did not significantly inhibit
